Data on eight molecules can be found in patent US20240376085A1 (Janssen Pharmaceutica NV, priority 2021, published 2024).

In one experiment the target is T1, IL-17A : IL-17RA binding (Homo sapiens, UniProt Q16552, K93Q).
T1 construct: Name: IL-17A-Flag
The experiment can be described thus: IL-17A(FLAG-tagged):IL-17RA(His-tagged) binding disruption Eu-HTRF assay, Protocol 1. The settings on record: FLAG-IL-17A 2.5 nM at 2x final concentration; average if tested more than once. A digest of the protocol:
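IC50 came from a one-site competition fit of the acceptor/donor (665/620 nm) HTRF ratio. His-tagged IL-17RA, Eu-anti-FLAG and D2-anti-His were added after a 1 h rt compound preincubation with FLAG-tagged IL-17A dimer in PBS/0.01% Triton X-100, followed by 2 h at rt before reading.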
Background: In TR-FRET formats the signal depends on donor and acceptor labels being close together.

The test system of experiment [1] is IL-17A-induced G-CSF production in human normal keratinocyte (NHK). The experiment can be described thus: NHK assay: IL-17A-induced G-CSF production in normal human keratinocytes. Format: cell-based. The following applies: Homo sapiens, Keratinocyte, 24 h, IL-17A 5 ng/mL, average if tested more than once. In short, it runs like this:
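Stimulus rhIL-17A 5 ng/mL final, premixed 1 h rt with compound; adult NHK, 5% FBS, 0.2% DMSO. Viability by CellTiter-Glo vs DMSO.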

T1 sequence (Q16552 with tags, fused parts or gaps K93Q): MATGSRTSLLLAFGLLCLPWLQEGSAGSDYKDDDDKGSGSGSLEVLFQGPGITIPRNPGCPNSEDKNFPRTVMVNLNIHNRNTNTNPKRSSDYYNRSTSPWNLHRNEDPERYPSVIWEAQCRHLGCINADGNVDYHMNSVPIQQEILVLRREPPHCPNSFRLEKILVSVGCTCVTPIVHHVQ

What is called IC50 is the concentration needed to halve the response being measured. Read a low IC50 as greater potency. With `Cc1nonc1C(=O)N[C@H](c1nc2cc([C@@H](NC(=O)CC3CC(F)(F)C3)C3CC3)ccc2[nH]1)C1CCC(F)(F)CC1` [Example 145, N—((S)-(5-((S)-Cyclopropyl(2-(3,3-difluorocyclobutyl)acetamido)methyl)-1H-benzo[d]imidazol-2-yl)(4,4-difluorocyclohexyl)methyl)-4-methyl-1,2,5-oxadiazole-3-carboxamide], the IC50 (on IL-17A : IL-17RA binding; in experiment [1]) was > 100 nM in each case.

On to `Cc1c(C(=O)NC(CC(C)(C)C(F)(F)F)c2nc3cc([C@@H](C)NC(=O)CCC(F)(F)F)ccc3[nH]2)cnn1CC(F)(F)F` (stereo in doubt) [Example 223, 5-Methyl-N—((S*)-4,4,4-trifluoro-3,3-dimethyl-1-(5-((R)-1-(4,4,4-trifluorobutanamido)ethyl)-1H-benzo[d]imidazol-2-yl)butyl)-1-(2,2,2-trifluoroethyl)-1H-pyrazole-4-carboxamide], for which the IC50 (on IL-17A : IL-17RA binding; in experiment [1]) was > 100 nM in each case.

As for `Cc1nonc1C(=O)N[C@@H](CC(C)(C)C(F)F)c1nc2ccc([C@H](NC(=O)CC3CC(F)(F)C3)C3CC3)cc2[nH]1` [Example 233, N—((S)-1-(6-((R)-Cyclopropyl(2-(3,3-difluorocyclobutyl)acetamido)methyl)-1H-benzo[d]imidazol-2-yl)-4,4-difluoro-3,3-dimethylbutyl)-4-methyl-1,2,5-oxadiazole-3-carboxamide], the IC50 on IL-17A : IL-17RA binding was < 50 nM; in experiment [1], > 100 nM.

On to `CC(C)n1nccc1C(=O)N[C@@H](COC1CC(F)(F)C1)c1nc2ccc([C@H](NC(=O)CC3CC(F)(F)C3)C3CC3)cc2[nH]1` [Example 257, N—((R)-1-(6-((R)-Cyclopropyl(2-(3,3-difluorocyclobutyl)acetamido)methyl)-1H-benzo[d]imidazol-2-yl)-2-(3,3-difluorocyclobutoxy)ethyl)-1-isopropyl-1H-pyrazole-5-carboxamide], for which the IC50 (on IL-17A : IL-17RA binding; in experiment [1]) was > 100 nM each time.

Turning to `C[C@@H](NC(=O)CCC(F)(F)F)c1ccc2[nH]c([C@@H](NC(=O)c3cnn(CC4CC(F)(F)C4(F)F)n3)C3CCC(F)(F)CC3)nc2c1` (stereo partly drawn) [Example 83, N—((S)-(4,4-Difluorocyclohexyl)(5-((R)-1-(4,4,4-trifluorobutanamido)ethyl)-1H-benzo[d]imidazol-2-yl)methyl)-2-((2,2,3,3-tetrafluorocyclobutyl)methyl)-2H-1,2,3-triazole-4-carboxamide], the half-maximal inhibitory concentration (IC50) (on IL-17A : IL-17RA binding; in experiment [1]) was > 100 nM throughout.

For `Cc1nonc1C(=O)N[C@H](c1nc2ccc([C@H](NC(=O)CC3CC(F)(F)C3)C3CC3)cc2[nH]1)C1CCCCO1` (single isomer, unassigned) [Example 252, N—((R)-(6-((R)-Cyclopropyl(2-(3,3-difluorocyclobutyl)acetamido)methyl)-1H-benzo[d]imidazol-2-yl)((R*)-tetrahydro-2H-pyran-2-yl)methyl)-4-methyl-1,2,5-oxadiazole-3-carboxamide], the IC50 (on IL-17A : IL-17RA binding; in experiment [1]) was > 100 nM each time.

As for `CC(C)CC(NC(=O)CCC(F)(F)F)c1ccc2[nH]c([C@@H](NC(=O)c3ccnn3C)C3CCC(F)(F)CC3)nc2c1` (single isomer, unassigned) [Example 48, N—((S)-(4,4-Difluorocyclohexyl)(5-((S*)-3-methyl-1-(4,4,4-trifluorobutanamido)butyl)-1H-benzo[d]imidazol-2-yl)methyl)-1-methyl-1H-pyrazole-5-carboxamide], the IC50 (at IL-17A : IL-17RA binding; in experiment [1]) was > 100 nM each time.

As to `C[C@@H](NC(=O)CCC(F)(F)F)c1ccc2nc([C@@H](NC(=O)c3cc(F)ccc3F)C3CCC(F)(F)CC3)[nH]c2c1` [Example 123, N—((S)-(4,4-Difluorocyclohexyl)(6-((R)-1-(4,4,4-trifluorobutanamido)ethyl)-1H-benzo[d]imidazol-2-yl)methyl)-2,5-difluorobenzamide], the IC50 (on IL-17A : IL-17RA binding; in experiment [1]) was > 100 nM throughout.
